# Source: US20250163038A1, “CBL-B MODULATORS AND USES THEREOF” (Nimbus Clio, Inc., priority 2021, published 2025)
# How the values were obtained:
# [1] = molecular target: Recombinant human Cbl-b (aa 36-427) (Homo sapiens, UniProt Q13191); assay: Cbl-b Biochemical Assay (TR-FRET); conditions: read-out: TR-FRET hCbl-b IC50
# [2] = test system: Jurkat (clone E6-1) cells with NFAT luciferase reporter; assay: Jurkat reporter assay (NFAT Luciferase); format: cell-based; conditions: Homo sapiens; Jurkat NFAT luciferase reporter cells, anti-CD3 stimulation, 6 hr; read-out: Jurkat NFAT EC50
# [3] = molecular target: T1, Recombinant human c-Cbl (aa 47-435) (Homo sapiens, UniProt P22681); assay: c-Cbl Biochemical Assay (TR-FRET); conditions: hc-Cbl Biochemical Assay (TR-FRET); read-out: TR-FRET hcCbl IC50
# T1 sequence (P22681 47-435): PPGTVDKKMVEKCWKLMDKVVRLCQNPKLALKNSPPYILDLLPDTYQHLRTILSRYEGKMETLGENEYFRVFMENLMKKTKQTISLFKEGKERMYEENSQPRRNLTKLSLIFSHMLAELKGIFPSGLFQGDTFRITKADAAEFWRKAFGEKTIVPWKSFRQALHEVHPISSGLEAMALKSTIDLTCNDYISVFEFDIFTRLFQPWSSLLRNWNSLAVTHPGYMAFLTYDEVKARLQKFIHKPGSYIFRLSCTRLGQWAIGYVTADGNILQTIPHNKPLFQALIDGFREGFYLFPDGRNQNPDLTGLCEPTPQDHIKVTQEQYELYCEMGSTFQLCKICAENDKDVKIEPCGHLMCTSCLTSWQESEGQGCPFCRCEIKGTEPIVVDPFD
# Sequence of Recombinant human Cbl-b (aa 36-427) (Q13191 36-427): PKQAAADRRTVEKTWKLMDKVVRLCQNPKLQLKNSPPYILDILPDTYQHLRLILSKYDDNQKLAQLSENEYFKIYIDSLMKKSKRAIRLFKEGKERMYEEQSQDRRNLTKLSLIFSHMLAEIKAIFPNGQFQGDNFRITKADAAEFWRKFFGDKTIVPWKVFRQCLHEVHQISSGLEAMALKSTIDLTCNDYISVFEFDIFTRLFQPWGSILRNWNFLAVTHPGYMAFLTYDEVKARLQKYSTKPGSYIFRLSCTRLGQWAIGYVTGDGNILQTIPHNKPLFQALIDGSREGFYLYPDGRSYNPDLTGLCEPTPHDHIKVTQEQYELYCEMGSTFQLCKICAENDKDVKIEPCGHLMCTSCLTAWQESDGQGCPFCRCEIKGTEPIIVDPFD
Compound,IC50 [1] [nM],EC50 [2] [nM],IC50 [3] [nM]
CCN(CC[C@@H](O)C(F)(F)F)Cc1cc(C(F)(F)F)c2oc(-c3cccc(-c4ccc(F)cc4-c4nncn4C)c3)nc2c1 [CR-2],< 200,200 to 1000,< 200
COCCN(Cc1cc(C(F)(F)F)c2oc(-c3cccc(-c4ccc(F)cc4-c4nncn4C)c3)nc2c1)CC(C)(C)O [EZ-3],< 200,1000 to 10000,200 to 1000
"Cn1cnnc1-c1cc(F)ccc1-c1cc(-c2nc3cc(C(C)(C)O)c(F)c(F)c3o2)nc(C2CC2)c1 [AHL-7, 2-(2-{6-cyclopropyl-4-[4-fluoro-2-(4-methyl-1,2,4-triazol-3-yl)phenyl]pyridin-2-yl}-6,7-difluoro-1,3-benzoxazol-5-yl)propan-2-ol]",200 to 1000,1000 to 10000,1000 to 10000
"COC1(CN[C@H](C)c2cc(F)c3oc(-c4cc(-c5ccc(F)cc5-c5nncn5C)cc(C5CC5)n4)nc3c2)CCC1 [AFT-1, [(1R)-1-(2-{6-Cyclopropyl-4-[4-fluoro-2-(4-methyl-1,2,4-triazol-3-yl)phenyl]pyridin-2-yl}-7-fluoro-1,3-benzoxazol-5-yl)ethyl][(1-methoxycyclobutyl)methyl]amine]",< 200,1000 to 10000,200 to 1000
"Cn1cnnc1-c1cc(F)ccc1-c1cc(-c2nc3cc(CNCC4(F)CCC4)cc(F)c3o2)nc(C2CC2)c1 [AFJ-1, [(2-{6-Cyclopropyl-4-[4-fluoro-2-(4-methyl-1,2,4-triazol-3-yl)phenyl]pyridin-2-yl}-7-fluoro-1,3-benzoxazol-5-yl)methyl][(1-fluorocyclobutyl)methyl]amine]",< 200,200 to 1000,< 200
"Cn1cnnc1-c1cc(C#N)ccc1-c1cccc(-c2nc3cc(CO)cc(C(F)(F)F)c3o2)c1 [CL-2, 3′-(5-(Hydroxymethyl)-7-(trifluoromethyl)benzo[d]oxazol-2-yl)-2-(4-methyl-4H-1,2,4-triazol-3-yl)-[1,1′-biphenyl]-4-carbonitrile]",< 200,1000 to 10000,200 to 1000

# Next, values leading:
IC50 [1] [nM],EC50 [2] [nM],IC50 [3] [nM],Compound
< 200,< 200,< 200,"Cc1cc(CNCC2CCC2)cc2nc(-c3cccc(-c4ccc(F)cc4-c4nncn4C)c3)oc12 [GU-1, 1-Cyclobutyl-N-((2-(4′-fluoro-2′-(4-methyl-4H-1,2,4-triazol-3-yl)-[1,1′-biphenyl]-3-yl)-7-methylbenzo[d]oxazol-5-yl)methyl)methanamine]"
< 200,200 to 1000,200 to 1000,"CN(Cc1cc(C(F)(F)F)c2oc(-c3cccc(-c4ccc(F)cc4-c4nncn4C)c3)nc2c1)CC1CCC1 [IE-1, 1-Cyclobutyl-N-((2-(4′-fluoro-2′-(4-methyl-4H-1,2,4-triazol-3-yl)-[1,1′-biphenyl]-3-yl)-7-(trifluoromethyl)benzo[d]oxazol-5-yl)methyl)-N-methylmethanamine]"
< 200,< 200,< 200,"Cn1cnnc1-c1cc(F)ccc1-c1cccc(-c2nc3cc(CNCCC(F)F)cc(C(F)(F)F)c3o2)c1 [EW-2, 3,3-Difluoro-N-((2-(4′-fluoro-2′-(4-methyl-4H-1,2,4-triazol-3-yl)-[1,1′-biphenyl]-3-yl)-7-(trifluoromethyl)benzo[d]oxazol-5-yl)methyl)propan-1-amine]"
< 200,< 200,< 200,"Cn1cnnc1-c1cc(F)ccc1-c1cccc(-c2nc3cc(CN[C@H]4CCC[C@@H]4O)cc(C(F)(F)F)c3o2)c1 [HJ-1, (1S,2S)-2-(((2-(4′-Fluoro-2′-(4-methyl-4H-1,2,4-triazol-3-yl)-[1,1′-biphenyl]-3-yl)-7-(trifluoromethyl)benzo[d]oxazol-5-yl)methyl)amino)cyclopentan-1-ol]"
< 200,< 200,< 200,"CC(C)CCNCc1cc(C(F)(F)F)c2oc(-c3cccc(-c4ccc(F)cc4-c4nncn4C)c3)nc2c1 [FO-2, N-((2-(4′-Fluoro-2′-(4-methyl-4H-1,2,4-triazol-3-yl)-[1,1′-biphenyl]-3-yl)-7-(trifluoromethyl)benzo[d]oxazol-5-yl)methyl)-3-methylbutan-1-amine]"
< 200,< 200,< 200,"Cn1cnnc1-c1cc(F)ccc1-c1cccc(-c2nc3cc(CN[C@H]4CC[C@@H]4O)cc(C(F)(F)F)c3o2)c1 (single isomer, unassigned) [ADG-1]"
< 200,200 to 1000,1000 to 10000,"Cn1cnnc1-c1ccccc1-c1cccc(-c2nc3cc(CN[C@@H]4CCC[C@@H]4O)cc(C(F)(F)F)c3o2)c1 [Example R-3, (1S,2R)-2-(((2-(2′-(4-Methyl-4H-1,2,4-triazol-3-yl)-[1,1′-biphenyl]-3-yl)-7-(trifluoromethyl)benzo[d]oxazol-5-yl)methyl)amino)cyclopentan-1-ol]"
< 200,< 200,< 200,"[2H]C([2H])([2H])N(Cc1cc(C(F)(F)F)c2oc(-c3cccc(-c4ccc(F)cc4-c4nncn4C)c3)nc2c1)[C@@H]1CCC[C@@H]1O [IT-1, (1S,2R)-2-(((2-(4′-Fluoro-2′-(4-methyl-4H-1,2,4-triazol-3-yl)-[1,1′-biphenyl]-3-yl)-7-(trifluoromethyl)benzo[d]oxazol-5-yl)methyl)(methyl-d3)amino)cyclopentan-1-ol]"
